Measurements reported in patent EP4653440A1, “HETEROCYCLIC COMPOUND, AND PHARMACEUTICAL COMPOSITION AND USE THEREOF” (Prime Gene Therapeutics Co., Ltd., priority 2023, dated 2024).

Tests used:
[1] = target: ROCK2 (Homo sapiens, UniProt O75116); experiment: ROCK2 kinase enzymatic activity (HTRF, STK2 substrate); type: biochemical; details: ROCK2 kinase reaction 30 minutes at room temperature
Excerpt: (§1) The kinase activity data was expressed by comparing the kinase activity of the test compound and that of the blank group (containing only DMSO), and the IC50 value was obtained by curve fitting using Prism software (GraphPad7.0).

[2] = tested on: phosphorylation of myosin light chain T18/S19; experiment: In Cell Western for phosphorylation of myosin light chain in A7r5 cells; type: cell-based, rat; details: Rattus norvegicus, A7R5, 1 h
Excerpt: The rat smooth muscle cell line A7r5 was used, and the A7r5 cell culture conditions were DMEM containing 10% FBS. Phspho-MLC-T18/S19 specific antibody and a second detection antibody were used to detect the phosphorylation level of myosin light chain by In Cell Western. Cells treated with positive compounds were used as positive controls, while the group without compounds but with compound solvents was used as negative controls. DRAQ5 stained cell nuclei were used as internal references. GraphPad Prism 7.0 software was used, and fitting was carried out by using a non-linear regression curve with varying slopes to determine the absolute IC50 value.
On the first day, A7r5 cells were resuspended in serum-free medium and seeded into 384 wells of PDL coated transparent black plates at a density of 5000 cells per well. Serum starvation culture was performed for 4 hours, and the cells were incubated with the compound in serum-free medium for 1 hour. 50 µL of 8% PFA (polyformaldehyde) was added to each well and fixed at room temperature for 1 hour. The liquid in the wells was discard and 90 µL of ice methanol was added to each well to permeabilize the cells at 4 °C for 1 hour. Then, PBST (0.1% Tween20-PBS) was added using an automatic separator to wash three times. After patting the plate for drying, 50 µL blocking solution was added to each well for sealing at room temperature for 1 hour. The phspho-MLC-T18/S19 specific antibody was diluted with the blocking solution at a ratio of 1:200. After adding 20 µL to each well, incubation was carried out overnight at 4 °C with a sealed film.
On the second day, the liquid in the wells was discarded and PBST was added using an automatic separator to wash the plate 5 times. After patting the plate for drying, the second detection antibody was diluted with blocking solution at a ratio of 1:800 and DRAQ5 at a ratio of 1:1000. After adding 20 µL to each well, incubation was carried out at room temperature for 1 hour. Then, the liquid in the wells was discarded and PBST was added using an automatic separator to wash the plate 3 times, followed by adding ddH2O to wash the plate 3 times. After patting the plate for drying, it was scaned using a LICOR Odyssey near-infrared imaging scanner.

[3] = target: ROCK1 (Homo sapiens, UniProt Q13464); experiment: ROCK1 kinase enzymatic activity (HTRF, STK2 substrate); type: biochemical; details: ROCK1 kinase reaction 20 minutes at room temperature
ROCK1, sequence (Q13464 whole entry): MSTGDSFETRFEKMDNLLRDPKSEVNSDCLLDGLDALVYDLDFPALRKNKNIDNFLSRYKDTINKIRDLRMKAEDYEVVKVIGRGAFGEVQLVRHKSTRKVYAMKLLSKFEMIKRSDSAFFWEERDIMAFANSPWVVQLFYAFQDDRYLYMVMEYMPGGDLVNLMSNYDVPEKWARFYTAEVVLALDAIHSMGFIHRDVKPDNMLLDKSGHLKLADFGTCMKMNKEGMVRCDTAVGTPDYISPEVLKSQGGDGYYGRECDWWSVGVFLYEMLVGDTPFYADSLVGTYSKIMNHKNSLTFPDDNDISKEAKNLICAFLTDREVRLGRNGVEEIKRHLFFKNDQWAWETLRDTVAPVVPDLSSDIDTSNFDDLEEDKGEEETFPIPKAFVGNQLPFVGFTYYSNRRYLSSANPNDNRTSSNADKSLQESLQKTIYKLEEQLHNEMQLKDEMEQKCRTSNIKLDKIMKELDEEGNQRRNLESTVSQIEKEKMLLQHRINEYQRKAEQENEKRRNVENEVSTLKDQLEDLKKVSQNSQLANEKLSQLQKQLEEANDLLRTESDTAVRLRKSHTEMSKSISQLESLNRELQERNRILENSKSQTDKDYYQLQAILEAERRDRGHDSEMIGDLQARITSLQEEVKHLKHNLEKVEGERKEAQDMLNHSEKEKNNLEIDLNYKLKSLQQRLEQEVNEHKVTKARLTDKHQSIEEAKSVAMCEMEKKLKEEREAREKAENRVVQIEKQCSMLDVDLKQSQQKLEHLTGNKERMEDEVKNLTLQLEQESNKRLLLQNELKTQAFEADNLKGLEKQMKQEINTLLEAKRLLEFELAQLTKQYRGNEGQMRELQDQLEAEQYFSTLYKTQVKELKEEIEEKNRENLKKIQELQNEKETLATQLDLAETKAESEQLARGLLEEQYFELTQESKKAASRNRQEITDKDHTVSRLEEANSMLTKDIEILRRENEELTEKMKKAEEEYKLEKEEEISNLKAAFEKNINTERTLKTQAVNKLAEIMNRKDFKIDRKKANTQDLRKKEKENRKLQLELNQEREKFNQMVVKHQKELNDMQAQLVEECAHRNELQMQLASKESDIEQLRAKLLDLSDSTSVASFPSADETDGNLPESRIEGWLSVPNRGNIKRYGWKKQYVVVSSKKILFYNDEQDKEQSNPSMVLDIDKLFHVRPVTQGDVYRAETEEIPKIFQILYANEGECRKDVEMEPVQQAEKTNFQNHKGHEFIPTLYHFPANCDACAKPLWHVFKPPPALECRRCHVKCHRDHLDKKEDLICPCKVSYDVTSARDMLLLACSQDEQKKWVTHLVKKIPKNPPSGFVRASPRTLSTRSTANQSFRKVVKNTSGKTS
Excerpt: as §1

[4] = tested on: Norwegian rat glaucoma model induced by hypertonic saline solution; experiment: Norwegian rat glaucoma model induced by hypertonic saline solution (intraocular pressure); type: in vivo; details: 0.02% eye drops once a day, one drop; compared with model control group; 0 to 24 hours after administration
Excerpt: Experimental method: after animal anesthesia, the lateral canthus of the right eye was incised, and a polypropylene ring was placed at the equator of the eyeball, with the notch of the ring located in the upper quadrant of the eyeball, leaving only one scleral surface vein above. […] After injection, the polypropylene ring was removed and antibiotic eye ointment was applied to the operated eye.
After modeling, a rebound tonometer was used continuously to measure the intraocular pressure of both eyes, once every 3 days, and the average of 6 measurements was took each time and recorded; After the intraocular pressure had been stabilized (about 20 days later), the subjects were randomly divided into three groups based on the most recent measurement of intraocular pressure and body weight: sham surgery group, model control group, and test drug group (0.02% Example 29) group, with 5 animals in each group. After grouping, eye drops were administered once a day, with one drop per time. During the administration period, dynamic intraocular pressure was measured once a week (detecting the intraocular pressure change curve from 0 to 24 hours after administration) until the end of the experiment.

ROCK2, sequence (O75116 whole entry): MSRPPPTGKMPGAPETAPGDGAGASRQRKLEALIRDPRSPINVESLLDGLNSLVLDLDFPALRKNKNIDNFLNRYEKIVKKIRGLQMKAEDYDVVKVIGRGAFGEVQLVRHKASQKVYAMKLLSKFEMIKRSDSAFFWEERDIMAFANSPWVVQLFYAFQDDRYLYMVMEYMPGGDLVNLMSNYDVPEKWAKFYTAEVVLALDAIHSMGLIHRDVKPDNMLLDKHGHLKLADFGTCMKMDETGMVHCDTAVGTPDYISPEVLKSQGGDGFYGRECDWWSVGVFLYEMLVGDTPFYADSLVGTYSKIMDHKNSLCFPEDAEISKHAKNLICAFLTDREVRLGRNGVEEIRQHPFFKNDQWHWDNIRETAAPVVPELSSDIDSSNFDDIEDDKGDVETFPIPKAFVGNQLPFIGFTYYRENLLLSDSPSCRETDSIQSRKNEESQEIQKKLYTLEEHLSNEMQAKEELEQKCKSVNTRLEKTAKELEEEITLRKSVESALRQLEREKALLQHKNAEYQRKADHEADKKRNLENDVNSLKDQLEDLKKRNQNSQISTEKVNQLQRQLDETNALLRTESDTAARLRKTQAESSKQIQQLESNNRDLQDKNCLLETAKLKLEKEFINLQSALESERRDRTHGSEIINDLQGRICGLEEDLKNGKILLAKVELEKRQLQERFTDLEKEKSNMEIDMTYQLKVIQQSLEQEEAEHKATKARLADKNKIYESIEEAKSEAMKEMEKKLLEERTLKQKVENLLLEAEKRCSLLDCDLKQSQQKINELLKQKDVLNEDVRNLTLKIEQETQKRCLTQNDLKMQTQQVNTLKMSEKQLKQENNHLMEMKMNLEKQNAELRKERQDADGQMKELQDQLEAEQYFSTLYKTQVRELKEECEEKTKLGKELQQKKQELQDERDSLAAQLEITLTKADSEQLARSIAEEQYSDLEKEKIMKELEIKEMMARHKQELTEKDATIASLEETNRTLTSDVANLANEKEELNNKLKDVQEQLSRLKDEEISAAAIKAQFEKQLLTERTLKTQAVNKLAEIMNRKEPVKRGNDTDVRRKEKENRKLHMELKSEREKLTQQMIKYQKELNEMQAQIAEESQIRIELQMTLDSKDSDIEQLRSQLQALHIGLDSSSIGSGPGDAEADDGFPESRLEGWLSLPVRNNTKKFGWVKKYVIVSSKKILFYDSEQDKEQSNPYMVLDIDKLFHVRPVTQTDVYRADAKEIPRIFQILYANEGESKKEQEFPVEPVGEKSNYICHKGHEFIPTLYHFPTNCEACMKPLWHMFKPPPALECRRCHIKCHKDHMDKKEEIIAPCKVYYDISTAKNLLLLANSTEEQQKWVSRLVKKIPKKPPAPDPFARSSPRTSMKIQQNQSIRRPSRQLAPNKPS

Row | IC50 [1] [nM] | IC50 [2] [nM] | IC50 [3] [nM] | SMILES | intraocular pressure [4]
1 | < 2 | 88 | < 5 | N#CC[C@@H](C1CC1)n1cc(-c2ncnc3[nH]ccc23)c(N)n1 [Example 26, (S)-3-(3-amino-4-(7H-pyrrolo[2,3-d]pyrimidin-4-yl)-1H-pyrazol-1-yl)-3-cyclopropylpropionitrile] | –
2 | < 5 | 95 | < 5 | N#CC[C@H](C1CCC1)n1cc(-c2ncnc3[nH]ccc23)c(N)n1 [Example 27, (R)-3-(3-amino-4-(7H-pyrrolo[2,3-d]pyrimidin-4-yl)-1H-pyrazol-1-yl)-3-cyclobutylpropionitrile] | –
3 | < 5 | 120 | < 5 | N#CC[C@@H](C1CCC1)n1cc(-c2ncnc3[nH]ccc23)c(N)n1 [Example 28, (S)-3-(3-amino-4-(7H-pyrrolo[2,3-d]pyrimidin-4-yl)-1H-pyrazol-1-yl)-3-cyclobutylpropionitrile] | –
4 | < 5 | 106 | < 5 | N#CC[C@H](C1CCCCC1)n1cc(-c2ncnc3[nH]ccc23)c(N)n1 [Example 29, (R)-3-(3-amino-4-(7H-pyrrolo[2,3-d]pyrimidin-4-yl)-1H-pyrazol-1-yl)-3-cyclohexylpropionitrile] | significantly decreased
5 | < 5 | 182 | < 5 | N#CC[C@@H](C1CCCCC1)n1cc(-c2ncnc3[nH]ccc23)c(N)n1 [Example 30, (S)-3-(3-amino-4-(7H-pyrrolo[2,3-d]pyrimidin-4-yl)-1H-pyrazol-1-yl)-3-cyclohexylpropionitrile] | –

The next lines start with the molecule.

Row | SMILES | IC50 [1] [nM] | IC50 [2] [nM] | IC50 [3] [nM] | intraocular pressure [4]
6 | N#CCC(C1CC2(CCCC2)C1)n1cc(-c2ncnc3[nH]ccc23)c(N)n1 (stereo not shown) [Example 22, 3-(3-amino-4-(7H-pyrrolo[2,3-d]pyrimidin-4-yl)-1H-pyrazol-1-yl)-3-(spiro[3.4]octan-2-yl)propionitrile] | < 5 | 264 | < 5 | –
7 | N#CCC(C1CCC2(CC2)C1)n1cc(-c2ncnc3[nH]ccc23)c(N)n1 (stereo not shown) [Example 23, 3-(3-amino-4-(7H-pyrrolo[2,3-d]pyrimidin-4-yl)-1H-pyrazol-1-yl)-3-(spiro[2.4]hept-5-yl)propionitrile] | < 5 | 195 | < 5 | –
8 | N#CCC(C1CC2CC2C1)n1cc(-c2ncnc3[nH]ccc23)c(N)n1 (stereo not shown) [Example 24, 3-(3-amino-4-(7H-pyrrolo[2,3-d]pyrimidin-4-yl)-1H-pyrazol-1-yl)-3-(bicyclo[3.1.0]hexyl-3-yl)propionitrile] | < 5 | 214 | < 5 | –
9 | N#CC[C@H](C1CC1)n1cc(-c2ncnc3[nH]ccc23)c(N)n1 [Example 25, (R)-3-(3-amino-4-(7H-pyrrolo[2,3-d]pyrimidin-4-yl)-1H-pyrazol-1-yl)-3-cyclopropylpropionitrile] | < 2 | 75 | < 5 | –
